Earlier results, collected in patent publication US20230181491A1, “COMPOSITIONS AND METHODS FOR THE TREATMENT AND MANAGEMENT OF INFLAMMATION USING HYDROXYNORKETAMINE” (SPIRIFY PHARMA INC., priority 2020, published 2023).
Structures can show the parent of a compound that is named as a salt.

Tested on: rats
Details: cited from earlier work

Row | Compound | spontaneous locomotor activity during the postanesthetic recovery phase
1 | (2R,6R;2S,6S)-HNK | no anesthetic or hyperlocomotor effects
2 | CNC1(c2ccccc2Cl)CCCCC1=O (racemic) [(R,S)-ketamine hydrochloride] | increased spontaneous locomotor activity
3 | NC1(c2ccccc2Cl)CCCCC1=O (racemic) [(R,S)-norketamine] | increased spontaneous locomotor activity
